Earlier results on 112 substances are cited in US20250231185A1, “Coronavirus T Cell Epitopes, Megapools and Uses Thereof” (La Jolla Institute for Immunology, priority 2021, published 2025).

The first series has as its system CD8+ T cells. Particulars: SARS-CoV-2 Ag S; T cell type recognizing the epitope; cited from earlier work.
As to 1299 (DSKVGGNYNY) [compound 1299], the Restriction entry is reported as “CD8”.

Consider 1300 (KVGGNYNYLY) [compound 1300], for which the Restriction result is “CD8”.

Turning to 1301 (VGGNYNYLY) [compound 1301], the Restriction result is recorded as “CD8”.

In the case of 1302 (GNYNYLYRLF) [compound 1302], the Restriction entry is “CD8”.

Consider 1305 (YNYLYRLFR) [compound 1305], for which the Restriction result is “CD8”.

As for 1306 (RLFRKSNLK) [compound 1306], the Restriction result is given as “CD8”.

With 1307 (KSNLKPFER) [compound 1307], the Restriction result is “CD8”.

On to 1308 (KPFERDISTEI) [compound 1308], for which the Restriction entry is on record as “CD8”.

For 1310 (FERDISTEIY) [compound 1310], the Restriction entry is “CD8”.

1311 (FERDISTEI) [compound 1311]: the Restriction entry is given as “CD8”.

For the substance 1312 (NGVEGFNCY) [compound 1312], the Restriction entry is “CD8”.

For 1318 (YQPYRVVVL) [compound 1318], the Restriction entry is “CD8”.

1320 (QPYRVVVLSF) [compound 1320]: the Restriction result is on record as “CD8”.

As to 1322 (FELLHAPATV) [compound 1322], the Restriction result is recorded as “CD8”.

In the case of 1323 (ELLHAPATV) [compound 1323], the Restriction result is “CD8”.

As for 1325 (LVKNKCVNF) [compound 1325], the Restriction result is “CD8”.

Take 1326 (VLTESNKKF) [compound 1326]: the Restriction entry was “CD8”.

Staying with this series, now noted: T cell type (CD4 or CD8) recognizing the SARS-CoV-2 epitope; cited from earlier work.
As to 958 (AAISDYDYYR) [compound 958], the Restriction entry was “CD8”.

As for 959 (AAISDYDYY) [compound 959], the Restriction result is listed as “CD8”.

Take 960 (AISDYDYYR) [compound 960]: the Restriction result was “CD8”.

For 962 (YRYNLPTMC) [compound 962], the Restriction entry was “CD8”.

As for 963 (YRYNLPTM) [compound 963], the Restriction result was “CD8”.

Consider 965 (FVVEVVDKY) [compound 965], for which the Restriction result was “CD8”.

As for 967 (KSAGFPFNKW) [compound 967], the Restriction entry is “CD8”.

Take 968 (KSAGFPFNK) [compound 968]: the Restriction entry is listed as “CD8”.

For 969 (ARLYYDSMSY) [compound 969], the Restriction entry is given as “CD8”.

Regarding 971 (FAYTKRNVI) [compound 971], the Restriction entry is on record as “CD8”.

972 (NVIPTITQM) [compound 972]: the Restriction result was “CD8”.

Consider 973 (IPTITQMNL) [compound 973], for which the Restriction entry is listed as “CD8”.

As to 974 (TITQMNLKY) [compound 974], the Restriction entry is given as “CD8”.

As for 975 (YAISAKNRAR) [compound 975], the Restriction entry was “CD8”.

On to 976 (SAKNRARTV) [compound 976], for which the Restriction entry is on record as “CD8”.

In the case of 977 (SICSTMTNR) [compound 977], the Restriction entry is recorded as “CD8”.

In the case of 978 (IAATRGATV) [compound 978], the Restriction result was “CD8”.

In the case of 979 (ATVVIGTSK) [compound 979], the Restriction result is reported as “CD8”.

Consider 981 (VENPHLMGWD) [compound 981], for which the Restriction result was “CD8”.

Take 982 (MPNMLRIMASL) [compound 982]: the Restriction entry is “CD8”.

As for 983 (NMLRIMASL) [compound 983], the Restriction result is “CD8”.

Turning to 984 (MLRIMASL) [compound 984], the Restriction entry is reported as “CD8”.

Regarding 985 (LRIMASLVL) [compound 985], the Restriction result is “CD8”.

Turning to 986 (IMASLVLAR) [compound 986], the Restriction entry is recorded as “CD8”.

As to 987 (MASLVLARK) [compound 987], the Restriction entry is “CD8”.

With 988 (RLANECAQV) [compound 988], the Restriction entry was “CD8”.

990 (TSSGDATTAY) [compound 990]: the Restriction entry is “CD8”.

Regarding 991 (VRNLQHRLY) [compound 991], the Restriction result was “CD8”.

Take 993 (FVNEFYAYLR) [compound 993]: the Restriction result is given as “CD8”.

As to 994 (FVNEFYAYL) [compound 994], the Restriction result is on record as “CD8”.

As for 996 (YAYLRKHF) [compound 996], the Restriction entry is “CD8”.

With 997 (LRKHFSMMI) [compound 997], the Restriction result is recorded as “CD8”.

As for 999 (LYYQNNVFM) [compound 999], the Restriction result is “CD8”.

On to 1001 (LVKQGDDYVY) [compound 1001], for which the Restriction entry is reported as “CD8”.

Consider 1002 (KQGDDYVYL) [compound 1002], for which the Restriction entry is “CD8”.

As for 1004 (VYLPYPDPSRI) [compound 1004], the Restriction result is listed as “CD8”.

With 1005 (YLPYPDPSRI) [compound 1005], the Restriction result was “CD8”.

For 1006 (YLPYPDPSRIL) [compound 1006], the Restriction result was “CD8”.

Regarding 1007 (LPYPDPSRIL) [compound 1007], the Restriction result is reported as “CD8”.

Consider 1010 (QEYADVFHLY) [compound 1010], for which the Restriction entry is “CD8”.

As for 1011 (YADVFHLYL) [compound 1011], the Restriction entry was “CD8”.

For 1013 (LTNDNTSRYW) [compound 1013], the Restriction result is listed as “CD8”.

For 1014 (NTSRYWEPEFY) [compound 1014], the Restriction result is listed as “CD8”.

On to 1015 (SRYWEPEF) [compound 1015], for which the Restriction entry is reported as “CD8”.

For 1016 (WEPEFYEAM) [compound 1016], the Restriction entry is given as “CD8”.

Take 1017 (AMYTPHTVL) [compound 1017]: the Restriction entry is recorded as “CD8”.

On to 1018 (TPHTVLQAV) [compound 1018], for which the Restriction result is “CD8”.

Regarding 1021 (QLYLGGMSYY) [compound 1021], the Restriction result is given as “CD8”.

In the case of 1022 (KPPISFPL) [compound 1022], the Restriction result is on record as “CD8”.

On to 1028 (YRGTTTYKL) [compound 1028], for which the Restriction result is reported as “CD8”.

1030 (APTLVPQEHYV) [compound 1030]: the Restriction result is “CD8”.

Regarding 1032 (VPQEHYVRI) [compound 1032], the Restriction result is “CD8”.

Turning to 1034 (YQKVGMQKY) [compound 1034], the Restriction result was “CD8”.

On to 1035 (FAIGLALYY) [compound 1035], for which the Restriction result is listed as “CD8”.

Regarding 1036 (YYPSARIVY) [compound 1036], the Restriction result is “CD8”.

As to 1037 (IPARARVEC) [compound 1037], the Restriction entry is listed as “CD8”.

For the substance 1038 (IPARARVECF) [compound 1038], the Restriction entry was “CD8”.

As to 1039 (YVFCTVNAL) [compound 1039], the Restriction result is reported as “CD8”.

Consider 1040 (VVNARLRAK) [compound 1040], for which the Restriction entry was “CD8”.

For 1043 (RPQIGVVREF) [compound 1043], the Restriction entry is reported as “CD8”.

As to 1044 (AVASKILGL) [compound 1044], the Restriction result is listed as “CD8”.

For 1045 (ILGLPTQTV) [compound 1045], the Restriction entry is recorded as “CD8”.

Regarding 1048 (EEAIRHVRAW) [compound 1048], the Restriction result is “CD8”.

As for 1049 (LQLGFSTGV) [compound 1049], the Restriction result is listed as “CD8”.

As for 1050 (MYKGLPWNV) [compound 1050], the Restriction entry is recorded as “CD8”.

1051 (KNLSDRVVFV) [compound 1051]: the Restriction entry was “CD8”.

1054 (PFMIDVQQW) [compound 1054]: the Restriction result is recorded as “CD8”.

1058 (LLADKFPVL) [compound 1058]: the Restriction entry is listed as “CD8”.

For the substance 1059 (YKIEELFYSY) [compound 1059], the Restriction entry is listed as “CD8”.

For the substance 1060 (KIEELFYSY) [compound 1060], the Restriction entry is “CD8”.

On to 1062 (FTDGVCLFW) [compound 1062], for which the Restriction entry was “CD8”.

1063 (SLYVNKHAF) [compound 1063]: the Restriction entry was “CD8”.

Consider 1066 (AGFSLWVYK) [compound 1066], for which the Restriction entry was “CD8”.

Take 1068 (YNLWNTFTRL) [compound 1068]: the Restriction result is “CD8”.

As to 1070 (NTFTRLQSL) [compound 1070], the Restriction result is reported as “CD8”.

As for 1071 (SLENVAFNV) [compound 1071], the Restriction result is listed as “CD8”.

As to 1073 (TTLPVNVAF) [compound 1073], the Restriction entry is given as “CD8”.

As for 1074 (TICAPLTVF) [compound 1074], the Restriction entry is on record as “CD8”.

Take 1075 (GRVDGQVDL) [compound 1075]: the Restriction result is listed as “CD8”.

On to 1076 (KVDGVVQQL) [compound 1076], for which the Restriction entry is “CD8”.

1077 (VVQQLPETY) [compound 1077]: the Restriction entry was “CD8”.

Consider 1078 (KPRSQMEIDF) [compound 1078], for which the Restriction entry is given as “CD8”.

1079 (FIERYKLEGY) [compound 1079]: the Restriction result was “CD8”.

As to 1080 (FIPMDSTVKNY) [compound 1080], the Restriction entry is listed as “CD8”.

Turning to 1081 (LLLDDFVEI) [compound 1081], the Restriction entry is “CD8”.

In the case of 1083 (SVVSKVVKV) [compound 1083], the Restriction result is recorded as “CD8”.

As to 1086 (VAMPNLYKM) [compound 1086], the Restriction entry is on record as “CD8”.

Take 1088 (LPKGIMMNV) [compound 1088]: the Restriction entry is reported as “CD8”.

Turning to 1092 (CATVHTANKW) [compound 1092], the Restriction entry is given as “CD8”.

With 1093 (KLMGHFAWW) [compound 1093], the Restriction result is given as “CD8”.

1094 (SSEAFLIGCNY) [compound 1094]: the Restriction result was “CD8”.

As to 1096 (YVMHANYIF) [compound 1096], the Restriction result is on record as “CD8”.

With 1097 (FWRNTNPIQL) [compound 1097], the Restriction result is recorded as “CD8”.

Take 1098 (WRNTNPIQL) [compound 1098]: the Restriction result was “CD8”.

Regarding 1099 (NPIQLSSYSL) [compound 1099], the Restriction entry is on record as “CD8”.
